[invAb] = inverted abasic unit; m = 2'-O-methyl; r = 2'-OH (RNA); f = 2'-fluoro
Tested on: NGFβ mRNA
Assay: NGFβ mRNA knock-down in Calu-1 cells (RNAiMax transfection, Taqman RT-PCR)
Assay type: cell-based, human
Settings: human Calu-1 cells, 10 nM siNA, 24 hrs post-transfection, relative to non-targeting control, normalized to GAPDH
Procedure: Calu-1 (human; ATCC cat# HTB-54): Cells were cultured at 37° C. in the presence of 5% CO2 and grown in McCoy's 5a medium supplemented with fetal bovine serum at a final concentration of 10% and 100 μg/mL of streptomycin and 100 U/mL penicillin.
All transfections were performed using RNAiMax (Invitrogen Cat# 13778-150) as per the manufacturer's instructions.
Cells were plated in all wells of a tissue-culture treated, 96-well plate at a final count of 5,000 cells/well in […], of appropriate culture media. Cells were cultured for 24 hours after plating at 37° C. in the presence of 5% CO2.
After 24 hours, complexes containing siNA and RNAiMax were created as follows: A solution of RNAiMax diluted 33-fold in OPTI-MEM was prepared. In parallel, solutions of the siNAs for testing were prepared to a final concentration of 120 nM in OPTI-MEM. After incubation of RNAiMax/OPTI-MEM solution at room temperature for 5 min, an equal volume of the siRNA solution and the RNAiMax solution were added together for each of the siNAs.
This solution was incubated at room temperature for 20 minutes. After incubation, 20 uL of the solution was added to each of the relevant wells.
The final concentration of siNA in each well was 10 nM and the final volume of RNAiMax in each well was 0.3u1.
The time of incubation with the RNAiMax-siNA complexes was 24 hours, unless otherwise indicated. There was no change in media between the transfection and harvesting of the cells unless otherwise indicated.
Dose response curves were carried out in a similar fashion in 96-well plates, while maintaining a constant amount of RNAiMax in each transfection.
RNA was extracted from a 96-well plate using the TaqMan® Gene Expression Cells-to-CT™ Kit (Cat# 4399002) with a modified protocol. Briefly, a 60 uL (1 plate) or 110 uL (2 plates) of the Lysis Solution with DNase I was dispensed into each well of the Lysis Buffer Plate (twin.tec full skirt plate). The lysis buffer and stop plates were stored at 4° C. until the cells were washed.
The plate was spun at 1100 rpm for 5 minutes. The culture medium was aspirated and discarded from the wells of the culture plate. The lysis was performed automatically using a BioMek FX instrument and method. After the Biomek method was completed, the lysis plate was incubated for 2 min. at room temperature. The lysis plate can be stored for 2 hours at 4° C., or at −20° C. or −80° C. for two months.
Each well of the reverse transcription plate required 10 uL of 2× reverse transcriptase Buffer, luL of 20× reverse transcription enzyme and 2 uL of nuclease-free water. The reverse transcription master mix was prepared by mixing 2× reverse transcription buffer, 20× reverse transcription enzyme mix, and nuclease-free water. 13 uL of the reverse transcription master mix was dispensed into each well of the reverse transcription plate (semi-skirted). A separate reverse transcription plate was prepared for each cell plate. The plate was loaded onto a Biomek NX or Biomek FX Dual-96 and the Biomek method was run. The program is programmed to automatically added 7 uL of lysate from the cell lysis procedure described above into each well of the reverse transcription plate. The plate is sealed and spun on a centrifuge (1000 rpm for 30 seconds) to settle the contents to the bottom of the reverse transcription plate. The plate is placed in a thermocycler at 37° C. for 60 min, 95° C. for 5 min, and 4° C. until the plate is removed from the thermocycler. Upon removal, if not used immediately, the plate was frozen at −20° C.
A series of probes and primers were used to detect the various mRNA transcripts of the genes of NGFβ, BDNF and GAPDH in human cell lines. All the Taqman probes and primers for the experiments here-in described were supplied as pre-validated sets by Applied Biosystems, Inc. (see Table 3). The assays were performed on an ABI 7900 instrument, according to the manufacturer's instructions. […]

Substance | % KD in CaLu-1 Cells
25402-DC: siNA duplex, NGFβ target site 651; sense B GAGAGGuGAAcAuuAAcAA TTB (SEQ ID NO: 29), antisense UUGuuAAuGuucAccucucUU (SEQ ID NO: 30) (sense GAGAGGUGAACAUUAACAATT; antisense UUGUUAAUGUUCACCUCUCUU; sense: DNA at AGT, 2'-fluoro at CU, [invAb] at 5' end, 3' end, backbone not given here; antisense: sugars from the 5' end rrrffmmfmfffmffffffmm, backbone not given here) | 53%
25403-DC: siNA duplex, NGFβ target site 958; sense B ccuGuAAAuuAuuuuAAAu TTB (SEQ ID NO: 31), antisense AUUuAAAAuAAuuuAcAGGUU (SEQ ID NO: 32) (sense CCUGUAAAUUAUUUUAAAUTT; antisense AUUUAAAAUAAUUUACAGGUU; sense: DNA at AGT, 2'-fluoro at CU, [invAb] at 5' end, 3' end, backbone not given here; antisense: sugars from the 5' end rrrfmmmmfmmfffmfmmmmm, backbone not given here) | 60%
25404-DC: siNA duplex, NGFβ target site 43; sense B cAGuGGucGuGcAGuccAA TTB (SEQ ID NO: 33), antisense UUGGAcuGcAcGAccAcuGUU (SEQ ID NO: 34) (sense CAGUGGUCGUGCAGUCCAATT; antisense UUGGACUGCACGACCACUGUU; sense: DNA at AGT, 2'-fluoro at CU, [invAb] at 5' end, 3' end, backbone not given here; antisense: sugars from the 5' end rrrmmffmfmfmmffmffmmm, backbone not given here) | 33%
25405-DC: siNA duplex, NGFβ target site 124; sense B cAAGGGAGcAGcuuucuAu TTB (SEQ ID NO: 35), antisense AUAGAAAGcuGcucccuuGUU (SEQ ID NO: 36) (sense CAAGGGAGCAGCUUUCUAUTT; antisense AUAGAAAGCUGCUCCCUUGUU; sense: DNA at AGT, 2'-fluoro at CU, [invAb] at 5' end, 3' end, backbone not given here; antisense: sugars from the 5' end rrrmmmmmffmfffffffmmm, backbone not given here) | 31%
25406-DC: siNA duplex, NGFβ target site 755; sense B cAcuGGAAcucAuAuuGuA TTB (SEQ ID NO: 37), antisense UACAAuAuGAGuuccAGuGUU (SEQ ID NO: 38) (sense CACUGGAACUCAUAUUGUATT; antisense UACAAUAUGAGUUCCAGUGUU; sense: DNA at AGT, 2'-fluoro at CU, [invAb] at 5' end, 3' end, backbone not given here; antisense: sugars from the 5' end rrrmmfmfmmmffffmmfmmm, backbone not given here) | 34%
25407-DC: siNA duplex, NGFβ target site 518; sense B cAcAGGAGcAAGcGGucAu TTB (SEQ ID NO: 39), antisense AUGAccGcuuGcuccuGuGUU (SEQ ID NO: 40) (sense CACAGGAGCAAGCGGUCAUTT; antisense AUGACCGCUUGCUCCUGUGUU; sense: DNA at AGT, 2'-fluoro at CU, [invAb] at 5' end, 3' end, backbone not given here; antisense: sugars from the 5' end rrrmffmfffmfffffmfmmm, backbone not given here) | 47%
25408-DC: siNA duplex, NGFβ target site 653; sense B GAGGuGAAcAuuAAcAAcA TTB (SEQ ID NO: 41), antisense UGUuGuuAAuGuucAccucUU (SEQ ID NO: 42) (sense GAGGUGAACAUUAACAACATT; antisense UGUUGUUAAUGUUCACCUCUU; sense: DNA at AGT, 2'-fluoro at CU, [invAb] at 5' end, 3' end, backbone not given here; antisense: sugars from the 5' end rrrfmffmmfmfffmffffmm, backbone not given here) | 26%
25409-DC: siNA duplex, NGFβ target site 468; sense B cucAGGAucuGGAcuucGA TTB (SEQ ID NO: 43), antisense UCGAAGuccAGAuccuGAGUU (SEQ ID NO: 44) (sense CUCAGGAUCUGGACUUCGATT; antisense UCGAAGUCCAGAUCCUGAGUU; sense: DNA at AGT, 2'-fluoro at CU, [invAb] at 5' end, 3' end, backbone not given here; antisense: sugars from the 5' end rrrmmmfffmmmffffmmmmm, backbone not given here) | 52%
25410-DC: siNA duplex, NGFβ target site 451; sense B ccGuGAAGcuGcAGAcAcu TTB (SEQ ID NO: 45), antisense AGUGucuGcAGcuucAcGGUU (SEQ ID NO: 46) (sense CCGUGAAGCUGCAGACACUTT; antisense AGUGUCUGCAGCUUCACGGUU; sense: DNA at AGT, 2'-fluoro at CU, [invAb] at 5' end, 3' end, backbone not given here; antisense: sugars from the 5' end rrrmfffmfmmffffmfmmmm, backbone not given here) | 70%
25411-DC: siNA duplex, NGFβ target site 101; sense B uccGGAcccAAuAAcAGuu TTB (SEQ ID NO: 47), antisense AACuGuuAuuGGGuccGGAUU (SEQ ID NO: 48) (sense UCCGGACCCAAUAACAGUUTT; antisense AACUGUUAUUGGGUCCGGAUU; sense: DNA at AGT, 2'-fluoro at CU, [invAb] at 5' end, 3' end, backbone not given here; antisense: sugars from the 5' end rrrfmffmffmmmfffmmmmm, backbone not given here) | 54%
25412-DC: siNA duplex, NGFβ target site 267; sense B cccAAGcccAcuGGAcuAA TTB (SEQ ID NO: 49), antisense UUAGuccAGuGGGcuuGGGUU (SEQ ID NO: 50) (sense CCCAAGCCCACUGGACUAATT; antisense UUAGUCCAGUGGGCUUGGGUU; sense: DNA at AGT, 2'-fluoro at CU, [invAb] at 5' end, 3' end, backbone not given here; antisense: sugars from the 5' end rrrmfffmmfmmmfffmmmmm, backbone not given here) | −3%
25414-DC: siNA duplex, NGFβ target site 615; sense B ccAcAGAcAucAAGGGcAA TTB (SEQ ID NO: 53), antisense UUGcccuuGAuGucuGuGGUU (SEQ ID NO: 54) (sense CCACAGACAUCAAGGGCAATT; antisense UUGCCCUUGAUGUCUGUGGUU; sense: DNA at AGT, 2'-fluoro at CU, [invAb] at 5' end, 3' end, backbone not given here; antisense: sugars from the 5' end rrrfffffmmfmfffmfmmmm, backbone not given here) | 61%

— patent US20120004281A1, “RNA Interference Mediated Inhibition of the Nerve Growth Factor Beta Chain (NGFB) Gene Expression Using Short Interfering Nucleic Acid (siNA)” (Merck Sharp & Dohme Corp, priority 2009, published 2012)
